Assay [1] deals with Magnaporthe grisea. In words: whole plant or invertebrate. The class given is in vivo. As to conditions: 250 ppm drug solution sprayed on test plant.
Assay [2] deals with Alternaia brassicicola. In words: Test Example C: Alternaria sooty spot on cabbage. The class given is in vivo. As to conditions: 250 ppm drug solution sprayed on test plant. The source says:
Seeds of a test plant (cabbage variety: Shikidori) were planted and cultivated until the cotyledons extended.
<Control Value> Control value=100{1−(n/3)}

The test system of assay [3] is Puccinia recondita. As to the kind of experiment: Test Example E: Brown rust on wheat. The class given is in vivo. As to conditions: 250 ppm drug solution sprayed on test plant.
Assay [4] concerns Phytophthora infestans. As to the kind of experiment: whole plant or invertebrate. The note with it: 250 ppm drug solution sprayed on test plant. It is filed as in vivo.
For assay [5], the system named is Botrytis cinerea. In words: Test Example B: Gray mold on tomato. The note with it: 250 ppm drug solution sprayed on test plant.
In assay [6] the test system is Plasmopara viticola. As to the kind of experiment: Test Example G: Downy mildew on vine. As to conditions: 250 ppm drug solution sprayed (2.5 ml/pot), grape Neomuscat, 7 to 10 days after inoculation.
Assay [7] deals with Colletotrichum orbiculare. In words: Test Example H: Anthracnose on cucumber. The note with it: 250 ppm drug solution sprayed (2.5 ml/pot), cucumber Sagami Hanjiro, 6 to 10 days after inoculation.
Assay [8] relates to Blumeria graminis f. sp. hordei. As to the kind of experiment: Test Example D: Powdery mildew on barley. The note with it: 250 ppm drug solution sprayed on test plant.

From US11147272B2, “Pyridone compounds and agricultural and horticultural fungicides comprising the same as active ingredients” (MITSUI CHEMICALS AGRO, INC., priority 2017, dated 2021) come the findings set out here.

SMILES strings stand for the structures.

For `CCn1c(-c2c(F)cc(F)cc2F)c(C(C)(OC)C(C)C)cc(Br)c1=O` (stereo not shown) [compound 465], the “Test A control value” in assay [1] is “H (more than 50% control value)”. Further, in assay [2], the “Test C control value” is reported as “H (more than 50% control value)”. Also, the “Test E control value” in assay [3] is listed as “H (more than 50% control value)”. Further, the “Test F control value” in assay [4] is listed as “L (50% or less control value)”. For the same molecule, the “Test B control value” in assay [5] was “H (more than 50% control value)”. Besides, in assay [6], the “Test G control value” is given as “H (more than 50% control value)”. Further, in assay [7], the “Test H control value” was “H (more than 50% control value)”. Moreover, the “Test D control value” in assay [8] is “H (more than 50% control value)”.

With `CCOC(C)(c1cc(Br)c(=O)n(CC)c1-c1c(F)cc(F)cc1F)C(C)C` (stereo not shown) [compound 466], the “Test A control value” in assay [1] was “L (50% or less control value)”. In addition, the “Test C control value” in assay [2] is on record as “H (more than 50% control value)”. In addition, the “Test E control value” in assay [3] is recorded as “L (50% or less control value)”. For the same molecule, the “Test F control value” in assay [4] is listed as “L (50% or less control value)”. Besides, the “Test B control value” in assay [5] is given as “L (50% or less control value)”. Also, the “Test G control value” in assay [6] was “L (50% or less control value)”. The “Test H control value” in assay [7] is on record as “L (50% or less control value)”. Moreover, the “Test D control value” in assay [8] is listed as “H (more than 50% control value)”.

For `CCn1c(-c2c(F)cc(OC)cc2F)c(C(C)(OC)C(C)C)cc(Br)c1=O` (stereo not shown) [compound 467], the “Test A control value” in assay [1] was “H (more than 50% control value)”. Further, the “Test C control value” in assay [2] is “H (more than 50% control value)”. In assay [3], the “Test E control value” is recorded as “H (more than 50% control value)”. In addition, in assay [4], the “Test F control value” was “L (50% or less control value)”. Besides, the “Test B control value” in assay [5] is listed as “H (more than 50% control value)”. For the same molecule, the “Test G control value” in assay [6] is “H (more than 50% control value)”. Also, the “Test H control value” in assay [7] was “H (more than 50% control value)”. The “Test D control value” in assay [8] is reported as “H (more than 50% control value)”.

On to `CCOC(C)(c1cc(Br)c(=O)n(CC)c1-c1c(F)cc(OC)cc1F)C(C)C` (stereo not shown) [compound 468], for which the “Test A control value” in assay [1] is reported as “H (more than 50% control value)”. Further, the “Test C control value” in assay [2] was “H (more than 50% control value)”. Besides, the “Test E control value” in assay [3] is recorded as “H (more than 50% control value)”. Besides, the “Test F control value” in assay [4] is “H (more than 50% control value)”. Also, the “Test B control value” in assay [5] is recorded as “H (more than 50% control value)”. For the same molecule, the “Test G control value” in assay [6] was “H (more than 50% control value)”. Moreover, the “Test H control value” in assay [7] was “H (more than 50% control value)”. For the same molecule, the “Test D control value” in assay [8] is reported as “H (more than 50% control value)”.

Consider `CCCc1ccc(=O)n(CC(F)F)c1-c1c(F)cc(F)cc1F` [compound 470], for which the “Test A control value” in assay [1] is reported as “L (50% or less control value)”. For the same molecule, in assay [2], the “Test C control value” is “H (more than 50% control value)”. Further, the “Test E control value” in assay [3] was “L (50% or less control value)”. The “Test F control value” in assay [4] is “L (50% or less control value)”. Besides, the “Test B control value” in assay [5] is listed as “L (50% or less control value)”. The “Test G control value” in assay [6] was “L (50% or less control value)”. Further, the “Test H control value” in assay [7] is “H (more than 50% control value)”. Moreover, the “Test D control value” in assay [8] was “L (50% or less control value)”.

As for `CCCc1cc(Cl)c(=O)n(CC(F)F)c1-c1c(F)cc(F)cc1F` [compound 471], in assay [1], the “Test A control value” is “H (more than 50% control value)”. In addition, in assay [2], the “Test C control value” is reported as “H (more than 50% control value)”. Besides, the “Test E control value” in assay [3] is listed as “H (more than 50% control value)”. Besides, the “Test F control value” in assay [4] is listed as “L (50% or less control value)”. Also, in assay [5], the “Test B control value” is “H (more than 50% control value)”. Further, in assay [6], the “Test G control value” is on record as “H (more than 50% control value)”. In addition, in assay [7], the “Test H control value” is given as “H (more than 50% control value)”. In assay [8], the “Test D control value” is “H (more than 50% control value)”.

On to `CCCc1cc(Br)c(=O)n(CC(F)F)c1-c1c(F)cc(F)cc1F` [compound 472], for which the “Test A control value” in assay [1] is on record as “H (more than 50% control value)”. Besides, the “Test C control value” in assay [2] was “H (more than 50% control value)”. In assay [3], the “Test E control value” is “H (more than 50% control value)”. For the same molecule, the “Test F control value” in assay [4] is listed as “L (50% or less control value)”. Moreover, the “Test B control value” in assay [5] is “H (more than 50% control value)”. The “Test G control value” in assay [6] is on record as “H (more than 50% control value)”. For the same molecule, the “Test H control value” in assay [7] is recorded as “H (more than 50% control value)”. Besides, in assay [8], the “Test D control value” is listed as “H (more than 50% control value)”.

As to `CCCc1cc(I)c(=O)n(CC(F)F)c1-c1c(F)cc(F)cc1F` [compound 473], in assay [1], the “Test A control value” is reported as “H (more than 50% control value)”. In addition, the “Test C control value” in assay [2] is “H (more than 50% control value)”. Also, the “Test E control value” in assay [3] is “H (more than 50% control value)”. Moreover, the “Test F control value” in assay [4] is recorded as “L (50% or less control value)”. Besides, the “Test B control value” in assay [5] is “H (more than 50% control value)”. In assay [6], the “Test G control value” is on record as “L (50% or less control value)”. Further, in assay [7], the “Test H control value” is reported as “L (50% or less control value)”. For the same molecule, the “Test D control value” in assay [8] is given as “H (more than 50% control value)”.

On to `CCCc1ccc(=O)n(CC(F)F)c1-c1c(F)cc(OC)cc1F` [compound 474], for which the “Test A control value” in assay [1] was “H (more than 50% control value)”. In assay [2], the “Test C control value” is on record as “H (more than 50% control value)”. Further, the “Test E control value” in assay [3] is “H (more than 50% control value)”. The “Test F control value” in assay [4] is given as “L (50% or less control value)”. Further, in assay [5], the “Test B control value” was “H (more than 50% control value)”. In addition, the “Test G control value” in assay [6] was “H (more than 50% control value)”. Also, the “Test H control value” in assay [7] was “H (more than 50% control value)”. Besides, in assay [8], the “Test D control value” is recorded as “H (more than 50% control value)”.

As to `CCCc1cc(Cl)c(=O)n(CC(F)F)c1-c1c(F)cc(OC)cc1F` [compound 475], the “Test A control value” in assay [1] is given as “H (more than 50% control value)”. In addition, the “Test C control value” in assay [2] is recorded as “H (more than 50% control value)”. Moreover, the “Test E control value” in assay [3] was “H (more than 50% control value)”. The “Test F control value” in assay [4] is given as “L (50% or less control value)”. For the same molecule, in assay [5], the “Test B control value” is on record as “H (more than 50% control value)”. The “Test G control value” in assay [6] is recorded as “H (more than 50% control value)”. The “Test H control value” in assay [7] is on record as “H (more than 50% control value)”. For the same molecule, the “Test D control value” in assay [8] is “H (more than 50% control value)”.

Consider `CCCc1cc(Br)c(=O)n(CC(F)F)c1-c1c(F)cc(OC)cc1F` [compound 476], for which the “Test A control value” in assay [1] was “H (more than 50% control value)”. Besides, the “Test C control value” in assay [2] was “H (more than 50% control value)”. Further, in assay [3], the “Test E control value” was “H (more than 50% control value)”. In addition, the “Test F control value” in assay [4] was “L (50% or less control value)”. Besides, in assay [5], the “Test B control value” was “H (more than 50% control value)”. In addition, the “Test G control value” in assay [6] was “H (more than 50% control value)”. Besides, the “Test H control value” in assay [7] is “H (more than 50% control value)”. Also, in assay [8], the “Test D control value” is recorded as “H (more than 50% control value)”.
